Test results published in publication PMC11187190, “Structural insights into GABAA receptor potentiation by Quaalude” (Nature Communications, 2024).
Several values for one entry are separate records, joined by “and”; a condition that tells them apart may be missing. Equal values may be shown once. Entries after “also recorded” stand apart in the source; their conditions may differ. Read-outs that look alike come from different tables or passages of the source.

Key:
[1] = system: β1-containing GABAA receptors; conditions: cited from earlier work
[2] = system: βM286W GABAA receptor; conditions: cited from earlier work
[3] = system: β2/3N265M GABAA receptor; conditions: cited from earlier work
[4] = system: α1β2M286Wγ2 GABAA receptor; conditions: β2M286W, cited from earlier work
[5] = system: α1β2γ2 GABAA receptor; conditions: cited from earlier work
[6] = system: α6β2N265Sδ GABAA receptor; conditions: β2N265S in α6β2δ, cited from earlier work
[7] = system: α1β2N265Mγ2 GABAA receptor; conditions: β2N265M, cited from earlier work
[8] = system: α1M236Wβ2γ2 GABAA receptor; conditions: α1M236W, cited from earlier work
[9] = system: α6β1S265Nδ GABAA receptor; conditions: β1S265N in α6β1δ, cited from earlier work
[10] = biological target: T1, α1Y210A/γ2F77A mutant α1β2γ2 GABAA receptor (Homo sapiens, UniProt P14867+P18507+P47870, DEL344-414/DEL362-381/DEL386-444/F116A/F383Q/G341Q/I446A/K384P/R340S/S415R/S417A/V416A/Y237A/Y342P); experiment: Whole-cell patch-clamp electrophysiology, benzodiazepine-site double mutant; assay type: cell-based; conditions: 500 µM and 1000 µM methaqualone with GABA EC10, vs cryo-EM construct
T1 construct: twin-strep tag (N); expressed in transfected cells; host or cells: HEK293S GnTI- (text: HEK cells)
T1 sequence (P14867 with tags, fused parts or gaps Y237A/R340S/G341Q/Y342P/DEL344-414/S415R/V416A/S417A): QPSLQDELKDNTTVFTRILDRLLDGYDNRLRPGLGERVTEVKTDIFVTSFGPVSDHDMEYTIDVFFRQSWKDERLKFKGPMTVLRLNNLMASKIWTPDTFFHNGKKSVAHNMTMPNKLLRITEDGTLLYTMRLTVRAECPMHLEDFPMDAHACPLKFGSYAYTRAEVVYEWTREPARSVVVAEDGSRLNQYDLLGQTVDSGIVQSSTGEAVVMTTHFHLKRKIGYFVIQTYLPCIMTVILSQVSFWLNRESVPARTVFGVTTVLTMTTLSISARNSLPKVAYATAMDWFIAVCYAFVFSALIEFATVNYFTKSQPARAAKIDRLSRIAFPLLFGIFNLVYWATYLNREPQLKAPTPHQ
T1 sequence (P47870 with tags, fused parts or gaps): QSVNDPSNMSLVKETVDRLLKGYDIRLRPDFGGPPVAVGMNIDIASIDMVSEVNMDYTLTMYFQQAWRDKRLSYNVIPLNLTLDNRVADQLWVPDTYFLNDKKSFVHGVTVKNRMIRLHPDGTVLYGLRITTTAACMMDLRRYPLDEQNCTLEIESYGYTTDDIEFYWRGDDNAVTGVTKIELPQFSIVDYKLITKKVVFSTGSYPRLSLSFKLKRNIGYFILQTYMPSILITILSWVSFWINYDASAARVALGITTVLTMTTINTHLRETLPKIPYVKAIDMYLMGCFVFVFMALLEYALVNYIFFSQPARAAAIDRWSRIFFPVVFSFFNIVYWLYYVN
T1 sequence (P18507 with tags, fused parts or gaps F116A/DEL362-381/F383Q/K384P/DEL386-444/I446A): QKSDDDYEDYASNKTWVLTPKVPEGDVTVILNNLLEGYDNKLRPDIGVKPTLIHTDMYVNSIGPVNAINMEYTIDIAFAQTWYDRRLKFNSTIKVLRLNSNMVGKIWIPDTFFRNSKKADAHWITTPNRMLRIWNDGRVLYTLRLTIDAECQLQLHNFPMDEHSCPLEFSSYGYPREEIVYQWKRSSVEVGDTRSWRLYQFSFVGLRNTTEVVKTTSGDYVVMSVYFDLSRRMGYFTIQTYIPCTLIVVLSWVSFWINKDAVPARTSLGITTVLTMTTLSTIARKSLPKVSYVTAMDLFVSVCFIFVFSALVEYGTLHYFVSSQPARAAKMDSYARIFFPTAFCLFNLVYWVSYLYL
Description: Whole-cell voltage-clamp recordings were collected on the adherent HEK293S GnTI^− that were transiently transfected with the tri-cistronic pEZT construct used for structural analyses, as well as with GFP protein in pEZT for selection. The amount of plasmids used for transfection was 0.2–0.6 μg, and transfection was performed according to Lipofectamine2000 manufacturer’s protocol. The protein was expressed for 1–3 days at 30 °C. On the day of recording, cells were plated onto a 35 mm dish and washed with bath solution (140 mM NaCl, 2.4 mM KCl, 4 mM MgCl2, 4 mM CaCl2, 10 mM HEPES pH 7.3, and 10 mM glucose). Borosilicate pipettes were pulled and polished to an initial resistance of 2–4 MΩ. Pipettes were filled with the pipette solution (100 mM CsCl, 30 mM CsF, 10 mM NaCl, 10 mM EGTA, and 20 mM HEPES pH 7.3). Cells were clamped at −75 mV. The recordings were made using an Axopatch 200B amplifier, sampled at 5 kHz, and low pass filtered at 2 kHz using Digidata 1440 A (Molecular Devices), and analyzed with pClamp 10 software (Molecular Devices). Ligand solutions were prepared in a bath solution. […]
Statistical analysis in Fig. 3 and Fig. 4 was performed using GraphPad Prism 9.2.0 software (GraphPad Software, Inc., La Jolla, CA). Data are expressed as means ± standard deviation of at least three recordings from independent cells. […]

[11] = system: β2N265M mutant α1β2γ2 GABAA receptor; experiment: Whole-cell patch-clamp electrophysiology, TMD site mutant incl. diazepam competition; assay type: cell-based; conditions: for Effect on potentiation by diazepam (competition assay): diazepam 1 µM, methaqualone 100 µM
Description: Whole-cell voltage-clamp recordings were collected on the adherent HEK293S GnTI^− that were transiently transfected with the tri-cistronic pEZT construct used for structural analyses, as well as with GFP protein in pEZT for selection. The amount of plasmids used for transfection was 0.2–0.6 μg, and transfection was performed according to Lipofectamine2000 manufacturer’s protocol. The protein was expressed for 1–3 days at 30 °C. On the day of recording, cells were plated onto a 35 mm dish and washed with bath solution (140 mM NaCl, 2.4 mM KCl, 4 mM MgCl2, 4 mM CaCl2, 10 mM HEPES pH 7.3, and 10 mM glucose). Borosilicate pipettes were pulled and polished to an initial resistance of 2–4 MΩ. Pipettes were filled with the pipette solution (100 mM CsCl, 30 mM CsF, 10 mM NaCl, 10 mM EGTA, and 20 mM HEPES pH 7.3). Cells were clamped at −75 mV. The recordings were made using an Axopatch 200B amplifier, sampled at 5 kHz, and low pass filtered at 2 kHz using Digidata 1440 A (Molecular Devices), and analyzed with pClamp 10 software (Molecular Devices). Ligand solutions were prepared in a bath solution. A gravity-driven RSC-200 rapid solution changer (Bio-Logic) was used for solution exchange.
Statistical analysis in Fig. 3 and Fig. 4 was performed using GraphPad Prism 9.2.0 software (GraphPad Software, Inc., La Jolla, CA). Data are expressed as means ± standard deviation of at least three recordings from independent cells. The two-tailed Welch’s t-test was used. A p-value of ≤0.05 was considered statistically significant.

[12] = system: α1H102R α1β2γ2 GABAA receptor; conditions: 300 µM methaqualone; cited from earlier work
[13] = system: α1M236Aβ2γ2 GABAA receptor; conditions: α1M236A; cited from earlier work
[14] = system: α1β2M286Aγ2 GABAA receptor; conditions: β2M286A; cited from earlier work
[15] = system: α1β2γ2 GABAA receptor; parameters: method as in Zhu S et al., 2018; conditions: ref Zhu S et al., 2018, cited from earlier work

CC(C)c1cccc(C(C)C)c1O [propofol]
Activity at receptors with serine at the β265 position [1]: remain active
Effect of mutation on PAM and agonist activities [2]: detrimental to the PAM and agonist activities
Effect of mutation on potentiation [3]: significantly reduces potentiation of propofol

Cc1ccccc1-n1c(C)nc2ccccc2c1=O [methaqualone, Methaqualone]
Effect of mutation on PAM activity [4]: more subtle decrease
Effect of mutation on PAM activity ([4]; listed as Methaqualone): Decreased PAM activity
Potentiation in the presence of saturating concentrations of flumazenil ([5]; 300 µM methaqualone): not significantly affected
Shape of PAM concentration-response curve ([5]; decreasing degree of potentiation above 300 µM): bell-shaped concentration-response curve
Agonist activity ([5]; very high concentrations (200–1000 µM)): minute but significant agonist activity
Effect of mutation on PAM activity [6]: from a PAM into a NAM
Effect of mutation on PAM activity ([6]; listed as Methaqualone): Elimination of PAM activity
Effect of mutation on PAM activity [7]: reduces the PAM activity of methaqualone and PAM and agonist activities of PPTQ significantly
Effect of mutation on PAM activity ([7]; listed as Methaqualone): Almost eliminated PAM activity
Effect of mutation on PAM activity [8]: PAM efficacy plummets
Effect of mutation on direct activation (agonist activity) [8]: dramatically more efficacious agonists
Effect of mutation on direct activation (agonist activity) ([8]; listed as Methaqualone): Pronounced increase in direct activation
Effect of mutation on PAM activity [9]: from a NAM to a PAM
Effect of mutation on PAM activity ([9]; listed as Methaqualone): Rescued PAM activity
Methaqualone-mediated modulation: effect of the two mutations [10]: affected neither
Effect of β2N265M mutation on methaqualone potentiation ([11]; 100 µM methaqualone with GABA EC10): most of the methaqualone activity was lost
Effect on receptor activation by GABA ([11]; 100 µM methaqualone, β2N265M): no measurable effect
Effect on potentiation by diazepam (competition assay) ([11]; β2N265M): block much of the PAM activity of diazepam
Effect on potentiation by diazepam (competition assay) ([11]; β2N265M, listed as MQ): inhibit diazepam potentiation
Effect of α1H102R mutation on potentiation [12]: not significantly affected

CN1C(=O)CN=C(c2ccccc2)c2cc(Cl)ccc21 [diazepam]
Relative current, GABA EC10 + DZ 1uM ([11]; N265M, relative to GABA EC10, single recordings, listed as DZ): 1.349 and 1.602 and 1.299 and 1.556

Cc1ccc(-n2c(-c3ccccc3)nc3ccccc3c2=O)cc1 [PPTQ, 2-phenyl-3-(p-tolyl)-quinazolin-4(3H)-one]
Effect of mutation on PAM activity [4]: significantly decreases its PAM efficacy; also recorded: pronounced decrease in PAM activity
Effect of mutation on direct activation (agonist activity) [4]: completely abolishes PPTQ agonist activity; also recorded: Elimination of direct activation
Effect of mutation on PAM activity [13]: negligible effects; also recorded: No significant difference
Effect of mutation on direct activation (agonist activity) [13]: negligible effects; also recorded: No significant difference
Effect of mutation on PAM activity [14]: significantly decreases its PAM efficacy; also recorded: decreased PAM activity
Effect of mutation on direct activation (agonist activity) [14]: completely abolishes PPTQ agonist activity; also recorded: Elimination of direct activation
Higher modulatory potency (EC50 value) than methaqualone ([5]; α1β2γ2 receptor subtype): ~50 fold
Effect of mutation on PAM activity [7]: reduces the PAM activity of methaqualone and PAM and agonist activities of PPTQ significantly; also recorded: Elimination
Effect of mutation on direct activation (agonist activity) [7]: reduces the PAM activity of methaqualone and PAM and agonist activities of PPTQ significantly; also recorded: Elimination
Effect of mutation on PAM activity [8]: PAM efficacy plummets; also recorded: decreased PAM activity
Effect of mutation on direct activation (agonist activity) [8]: dramatically more efficacious agonists; also recorded: Pronounced increase in direct activation

Fab: Fab fragment of 1F4 monoclonal antibody against the α1 subunit, used for cryo-EM particle alignment
Effect on flumazenil's activity or binding affinity [15]: no significant effect
Shift of the EC50 for GABA to the left ([15]; weak positive allosteric modulator): 2.5 fold

CCOC(=O)c1cncn1[C@H](C)c1ccccc1 [etomidate]
Effect of mutation on PAM activity [13]: increases etomidate modulatory efficacy
Effect of mutation on PAM activity [8]: PAM efficacy plummets
Effect of mutation on direct activation (agonist activity) [8]: dramatically more efficacious agonists
Activity at receptors with serine at the β265 position [1]: remain active
Effect of mutation on PAM and agonist activities [2]: detrimental to the PAM and agonist activities
Effect of mutation on potentiation [3]: almost entirely eliminates potentiation by etomidate

NCCCC(=O)O [GABA, γ-aminobutyric acid]
Effect of mutation on receptor sensitivity to GABA [8]: increases receptor sensitivity to GABA
